Legend:
[1] = tested on: hormone-refractory DU-145 human prostate cancer cells; assay: Cell-derived xenograft mouse model for prostate cancer (DU-145 CDX); assay type: in vivo; details: p.o. QD × 4 weeks; for T/C (tumor-to-control ratio, volume/volume): day 35
Description: Male BALB/c nude mice (7-9 weeks of age) were injected with hormone-refractory DU-145 human prostate cancer cells. The cells were inoculated subcutaneously into the left flank of 48 mice. When tumors reached a mean volume of approximately 105 mm^3, mice were randomly assigned to eight treatment groups of each six mice (TABLE 12). Body weights were measured three times weekly prior to the initiation of dosing and daily thereafter. Tumor burden was assessed by caliper measurement three times weekly. Dosing breaks were applied when tolerability issues arose (body weight loss>10%). The study was terminated 4 weeks post first dosing. The experiment was performed in the Crown Bioscience Ltd. (Beijing) testing facility (Ground Floor, Light Muller Building, Changping Sector of Zhongguancun Scientific Park, No. 21 Huoju Road, Changping District, Beijing, CHIN).

A549 = assay: 9-day colony survival assay (CFA); assay type: cell-based; details: Homo sapiens, 216 h, A549 (lung), read-out: GI50 (50% growth inhibition)
PC3 = assay: 9-day colony survival assay (CFA); assay type: cell-based; details: Homo sapiens, PC-3, 216 h, PC3 (prostate), read-out: GI50 (50% growth inhibition)
CaSki = assay: 9-day colony survival assay (CFA); assay type: cell-based; details: Homo sapiens, Ca-Ski, 216 h, CaSki (cervix), read-out: GI50 (50% growth inhibition)
Excerpt: Cell culture. CaSki cells (cervical cancer) were obtained from CLS GmbH, Eppelheim, Germany (cat #300145) and subcultured in ready-to-use RPMI1640 Media (CLS #820700) after addition of “Antibiotic Antimycotic Solution” (Sigma-Aldrich, St Louis, USA) at 1:100 dilution. The cells were expanded, and aliquots kept frozen in liquid nitrogen according to manufacturer's instructions; tested for mycoplasma contamination and genotyped (Microsynth AG, Balgach, Switzerland). Once thawed, aliquots were passaged every second or third day at a seed density of 20′000 cells/cm^2; and used for a maximum of twenty passages. For passaging, cell culture flasks were rinsed twice with Ca++/Mg++-free Phosphate-Buffered Saline (DPBS, CLS #860015) and incubated with Accutase (CLS #830100) for 15 min at 37° C. Cells were resuspended in a four-fold volume of ready-to-use RPMI, centrifuged at 300 g for ten minutes, the supernatant discarded and the cells resuspended in ready-to-use RPMI1640 by pipetting up and down five times with a serological pipette. Cell density was determined with a Via-1 Cassette (Chemometec, Allerod, Denmark) on a Nucleocounter NC 3000 (Chemometec). Where not stated, consumables and chemicals were purchased from well-known suppliers.
Preparation of the cells for CFA. Cell culture flasks were rinsed twice with DPBS and incubated with Accutase for 15 min at 37° C. Cells were resuspended in a four-fold volume of ready-to use RPMI, centrifuged at 300 g for ten minutes, the supernatant discarded and the cells resuspended in ready-to-use RPMI1640 by pipetting up and down ten times with a serological pipette. Cell density was determined with a Via-1 Cassette on a Nucleocounter NC 3000. The required amount of cells was first diluted 1:10 in ready-to-use RPMI; cells pipetted five times up-down with a serological pipette; and the 1:10 solution added to the final volume needed for the whole assay setup. Cells were mixed again by pipetting up and down twenty times with a serological pipette. The cell density used for the experiment was of 140 cells/ml.
Seeding. Cells were seeded row-wise in 12-well plates, while triplicates were treated column-wise (i.e. all the first rows were seeded first, then the second rows, and finally the third rows). One and a half ml cell suspension solution (a total of 210 cells) were added per well.
Treatment. Compound stock solutions were prepared at a concentration of 30 mM in 50% DMSO/50% water; and diluted in the same solution so that the volume added to the wells was of 2.5 μl and the final DMSO well concentration of 0.08%. Untreated cells (negative controls) were incubated in a) medium only; and b) 0.08% DMSO. […] The plates were swirled gently after addition of the compounds and the cells incubated for nine days at 37° C. Culture incubation solutions were replaced after five days.
Staining. Colonies were washed twice with ice-cold DPBS and fixed on ice with 1 ml ice-cold 10% methanol solution for 30 min. The methanol solution was removed and colonies incubated with 0.1% Crystal Violet/DBPS for 20 min at room temperature. The wells were rinsed consecutively with 1.5, 1, and 0.5 ml water at room temperature and let dry.
Destaining and data evaluation. […] Absorbance was measured at 600 nm with a SpectraMax M2e reader (Molecular Devices, Sunnyvale, CA, USA). Percentage of colony formation was calculated from the average of the well triplicates compared to the untreated DMSO controls after subtraction of blank values. […]

| SMILES | Tumor Size day 35 (Mean ± SEM) ([1]; 1 mg/kg) [mm^3] | T/C (tumor-to-control ratio, volume/volume) ([1]; 1 mg/kg) [%] | Tumor Size day 35 (Mean ± SEM) ([1]; 3 mg/kg) [mm^3] | T/C (tumor-to-control ratio, volume/volume) ([1]; 3 mg/kg) [%] | Tumor Size day 35 (Mean ± SEM) ([1]; 6 mg/kg) [mm^3] | T/C (tumor-to-control ratio, volume/volume) ([1]; 6 mg/kg) [%] | Tumor Size day 35 (Mean ± SEM) ([1]; 10 mg/kg) [mm^3] | T/C (tumor-to-control ratio, volume/volume) ([1]; 10 mg/kg) [%] | GI50 (A549) [nM] | GI50 (PC3) [nM] | GI50 (CaSki) [nM] |
| --- | --- | --- | --- | --- | --- | --- | --- | --- | --- | --- | --- |
| CC(C)C[C@@H]1NCCN([C@@H](CC(C)C)C(=O)N2CCC3(C[C@@H]2C)OCC(CN2CCCC2)CO3)C1=O (stereo partly drawn) [Compound 258, (3S)-1-[(2S)-4-methyl-1-oxo-1-[(3s,6s,8S)-8-methyl-3-(pyrrolidin-1-ylmethyl)-1,5-dioxa-9-azaspiro[5.5]undec-an-9-yl]pentan-2-yl]-3-(2-methylpropyl)piper-azin-2-one (^≠), isomer Z] | 378 ± 27 | 54.5 | 105 ± 25 | 15.2 | 32 ± 2 | 4.6 | 47 ± 4 | 6.8 | 5 | 3 | 2 |
| CC(C)C[C@@H]1NCCN([C@@H](CC(C)C)C(=O)N2CCC3(C[C@@H]2C)OCC(CN2CCC4(CC2)CC4)CO3)C1=O (stereo partly drawn) [Compound 279, (3S)-1-[(2S)-4-methyl-1-oxo-1-[(3s,6s,8S)-3-{6-azaspiro[2.5]octan-6-ylmethyl}-8-methyl-1,5-dioxa-9-azaspiro[5.5]undec-an-9-yl]pentan-2-yl]-3-(2-methylpropyl)piper-azin-2-one (^≠), isomer Z] | – | – | 516 ± 59 | 74.5 | – | – | – | – | 5 | 1.5 | 4 |
| CC(C)C[C@@H]1NCCN([C@@H](CC(C)C)C(=O)N2CCC3(C[C@@H]2C)OCC(CN2CCC2)CO3)C1=O (stereo partly drawn) [Compound 284, (3S)-1-[(2S)-4-methyl-1-oxo-1-[(3s,6s,8S)-3-(azetidin-1-ylmethyl)-8-methyl-1,5-dioxa-9-azaspiro[5.5]undec-an-9-yl]pentan-2-yl]-3-(2-methylpropyl)piper-azin-2-one (^≠), isomer Z] | – | – | 347 ± 48 | 50.1 | – | – | – | – | 10 | 3 | 6 |

Reference: patent publication US20250115571A1, “OXOPIPERAZINE DERIVATIVES” (Inthera Bioscience AG, priority 2017, published 2025)
